# Laboratory results reported in a melting point compilation (Tetko et al.; mined from patent text by program, amines drawn as free bases though some values may be those of a salt).
row,SMILES,melting point [°C]
1,CC(C)(O)Cn1c(CO)nc2c(N)nc3cc(CCCNS(C)(=O)=O)ccc3c21,202 to 205
2,COc1ccc(C(O)CNCc2cccc(OC)c2C)cc1OC (stereo not drawn),135 to 136
3,O=C(O)CCCOn1nnc2ccc(Cn3ccnc3)cc21,170
4,COc1ccc(OC)c(C#N)c1C#N,276 to 280
5,CCc1cc(C(C)=O)c(O)cc1OCCCCCNC(C)=O,115 to 116
6,NS(=O)(=O)c1c(Cl)ccc(NC(=O)Nc2cccc(Cl)c2Cl)c1O,241 to 242
7,Clc1ccccc1-c1noc(-c2ccccc2Cl)n1,91 to 92
8,O=S1CCC(c2ccccc2)(c2ccccc2)CC1,122
9,CC(C)COc1ccc(-c2nc3cccc(O)c3s2)cc1C#N,200 to 202
10,Cc1nc(Nc2c([N+](=O)[O-])cc(C(F)(F)F)c(Cl)c2[N+](=O)[O-])c(Cl)cc1Cl,128 to 130
11,N#CC(=NOC(=O)OCc1ccccc1)c1ccccc1,73 to 75
12,CCOC(=O)C1Cc2ccccc2N1C(=O)C(C)Br (stereo not drawn),101 to 103
13,NC(CCCl)C(=O)c1ccccc1 (stereo not drawn),44 to 46
14,C=C(C)c1ccc2c(c1)C(=O)c1ccccc1C2=O,126
15,O=C(O)c1ccc(OCC2CCCCC2)c([N+](=O)[O-])c1,200 to 202
16,CCOC(=O)C(=O)Nc1c([N+](=O)[O-])sc2c(Cl)cc(Cl)cc12,177 to 180
17,COc1cc(OC)n2ncc(Br)c2n1,188 to 190
18,CC(C)(C)OC(=O)c1ncn2c1c(C(=O)N1CCCC1)cc1ccccc12,216 to 218
19,COC(=O)CCC#Cc1cc(Cl)ccc1[N+](=O)[O-],75 to 78

# More lines, now with the values ahead:
row,melting point [°C],SMILES
1,286,COc1ccc(-c2[nH]nc3c2C(=O)c2c(NC(=O)Cc4ccc(Cl)cc4Cl)cccc2-3)cc1
2,122,COc1ccc(-c2ncn(C)c2-c2ccc(OC)cc2)cc1
3,148 to 149,CCOC(=O)c1cnn2c(-c3ccc(OC)c(OC)c3)ccnc12
4,234 to 236,CCOC(=O)c1ccc(-c2csc(-c3ccc(Cl)cc3)n2)s1
5,207 to 210,CCOC(=O)c1c(C)cc2c(=O)n(-c3ccccc3C(=O)O)cnc2c1C
6,205 to 207,COC(=O)C1=C(C)NC(C)=C(C(=O)OC)C1c1ccc(F)c(Nc2c(NCCCN3CCC(c4cccc(OC)c4)CC3)c(=O)c2=O)c1
7,98 to 100,CC(C)(C)OC(=O)NCc1cccc(OCCC2Oc3ccccc3N(Cc3cccc(Cl)c3)C2=O)c1 (stereo not drawn)
8,202 to 203,CC(C)CC(=O)Nc1c(C(=O)c2ccoc2)[nH]c2cc(Cl)ccc12
9,106,CCOC(=O)Cc1nc2c(OCc3ccccc3)cccc2n1C
10,118,OC1(c2ccc(Cl)c(Cl)c2)CCN(CCCOc2ccc(Cl)c(Cl)c2)CC1
11,190 to 204,COc1cccc2c1CC(C(=O)NCCOc1ccc(C(=O)O)cc1)N2S(=O)(=O)c1ccc(-c2ccc(F)cc2Cl)cc1 (stereo not drawn)
12,86 to 90,CN(C)CCCn1cc(C2=C(c3c[nH]c4ccccc34)C(=O)N(C)C2=O)c2ccccc21
13,149 to 150,Cc1c(C)c2c(c(C)c1NS(=O)(=O)CCCC(F)(F)F)C(c1ccc(C(C)C)cc1)CO2 (stereo not drawn)
14,48 to 52,O=[N+]([O-])c1cc(OCc2ccccc2)ccc1CCO
15,226 to 228,COc1ccc(-c2cnn(-c3ccc(N4C[C@H](CNC(C)=O)OC4=O)cc3F)c2)cc1
16,128 to 129,CC(=O)Sc1ccc(C#Cc2ccc(C=O)cc2)cc1
17,227 to 231,COCCOc1ccc(-c2ccc3c(c2)C=C(C(=O)Nc2ccc(CN(C)C4CCOCC4)cc2)CCS3(=O)=O)cc1
18,253,CCN(CC)c1ccc(-c2cc(-c3ccc(C(=O)O)cc3)ccc2CCCNC2CCCCC2)cc1C(C)(C)C
19,167,Cc1cc(OC2CN(C(=O)c3nnc(-c4ccccc4)o3)C2)ccc1CN1CCC(C)(CO)CC1
